Values quoted from earlier work in patent USRE43580E1, “Nasal calcitonin formulations” (Unigene Laboratories, Inc., priority 2000, dated 2012).

Assays:
[1] = preservative in the nasal formulation
rhinitis medicamentosa = details: healthy volunteers, decongestant nasal spray containing the preservative
nasal mucosa = details: in vivo
[2] = test system: respiratory mucosal tissue; details: exposed in vitro
[3] = test system: mucocilary transport velocity; details: ex vivo frog palate

benzalkonium chloride
Absorption of salmon calcitonin [1]: enhance the absorption of salmon calcitonin | Rhinitis medicamentosa (rhinitis medicamentosa): aggravate rhintis rhinitis medicamentosa | Effect on nasal mucosa (nasal mucosa): adverse effect on nasal mucosa | Morphology of respiratory mucosal tissue [2]: severe morphological alterations | Mucocilary transport velocity [3]: significant slowing
